How the values were obtained:
[1] = test system: persian speedwell; assay: Test Example 4: herbicidal effect by soil treatment (Table 19, symbol R); format: in vivo, Persian speedwell (Veronica persica); conditions: amount of applied herbicide 320 g/ha
In short: (§1)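 Step 1: sow seeds in sterilized diluvial soil, cover ~1.5 cm. Step 2: spray diluted emulsion onto soil surface at predetermined rate. Step 3: greenhouse, 25–30° C, three weeks. Step 4: grade effect on each plant by earlier criteria.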

[2] = test system: velvetleaf; assay: Test Example 5: herbicidal effect by foliage application, plastic box (Table 20, symbol M); format: in vivo, velvetleaf (Abutilon theophrasti); conditions: foliage application
In short: (§2)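 Foliar spray test: emulsion formulation diluted in water to a set application rate, sprayed onto 14-day-old plants raised in diluvial soil at 25° C to 30° C under glass. Both herbicidal effect and crop effect rated visually three weeks later.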

[3] = test system: wild oat; assay: Test Example 4: herbicidal effect by soil treatment (Table 19, symbol I); format: in vivo, wild oat (Avena fatua); conditions: amount of applied herbicide 320 g/ha
In short: as §1

[4] = test system: Italian ryegrass; assay: Test Example 4: herbicidal effect by soil treatment (Table 19, symbol K); format: in vivo, Italian ryegrass (Lolium multiflorum); conditions: amount of applied herbicide 320 g/ha
In short: as §1

[5] = test system: lambsquarters; assay: Test Example 4: herbicidal effect by soil treatment (Table 19, symbol O); format: in vivo, lambsquarters (Chenopodium album); conditions: amount of applied herbicide 320 g/ha
In short: as §1

[6] = test system: barnyard grass; assay: Test Example 5: herbicidal effect by foliage application, plastic box (Table 20, symbol H); format: in vivo, barnyard grass (Echinochloa crus-galli); conditions: foliage application
In short: as §2

[7] = test system: persian speedwell; assay: Test Example 5: herbicidal effect by foliage application, plastic box (Table 20, symbol R); format: in vivo, Persian speedwell (Veronica persica); conditions: foliage application
In short: as §2

[8] = test system: lambsquarters; assay: Test Example 5: herbicidal effect by foliage application, plastic box (Table 20, symbol O); format: in vivo, lambsquarters (Chenopodium album); conditions: foliage application
In short: as §2

[9] = test system: barnyard grass; assay: Test Example 3: herbicidal effect by foliage application, Wagner pot (Table 18, symbol H); format: in vivo, barnyard grass (Echinochloa crus-galli)
In short: (§3)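 Plants were sown in alluvial soil held under 0.1–0.5 cm standing water and grown 14 days in a greenhouse at 25–30 °C. An emulsifiable formulation, water-diluted to the set dose, was then sprayed onto the foliage, and effects were scored three weeks later using previously defined criteria.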

[10] = test system: false cleavers; assay: Test Example 4: herbicidal effect by soil treatment (Table 19, symbol Q); format: in vivo, false cleavers (Galium spurium); conditions: amount of applied herbicide 320 g/ha
In short: as §1

[11] = test system: windgrass; assay: Test Example 4: herbicidal effect by soil treatment (Table 19, symbol L); format: in vivo, windgrass (Apera spica-venti); conditions: amount of applied herbicide 320 g/ha
In short: as §1

[12] = test system: barnyard grass; assay: Test Example 4: herbicidal effect by soil treatment (Table 19, symbol H); format: in vivo, barnyard grass (Echinochloa crus-galli); conditions: amount of applied herbicide 320 g/ha
In short: as §1

[13] = test system: redroot pigweed; assay: Test Example 5: herbicidal effect by foliage application, plastic box (Table 20, symbol N); format: in vivo, redroot pigweed (Amaranthus retroflexus); conditions: foliage application
In short: as §2

[14] = test system: chickweed; assay: Test Example 4: herbicidal effect by soil treatment (Table 19, symbol P); format: in vivo, common chickweed (Stellaria media); conditions: amount of applied herbicide 320 g/ha
In short: as §1

[15] = test system: green foxtail; assay: Test Example 5: herbicidal effect by foliage application, plastic box (Table 20, symbol G); format: in vivo, green foxtail (Setaria viridis); conditions: foliage application
In short: as §2

[16] = test system: rice flat sedge; assay: Test Example 3: herbicidal effect by foliage application, Wagner pot (Table 18, symbol E); format: in vivo, rice flat sedge (Cyperus iria)
In short: as §3

[17] = test system: Italian ryegrass; assay: Test Example 5: herbicidal effect by foliage application, plastic box (Table 20, symbol K); format: in vivo, Italian ryegrass (Lolium multiflorum); conditions: foliage application
In short: as §2

[18] = test system: southern crabgrass; assay: Test Example 4: herbicidal effect by soil treatment (Table 19, symbol F); format: in vivo, southern crabgrass (Digitaria ciliaris); conditions: amount of applied herbicide 320 g/ha
In short: as §1

[19] = test system: chickweed; assay: Test Example 5: herbicidal effect by foliage application, plastic box (Table 20, symbol P); format: in vivo, common chickweed (Stellaria media); conditions: foliage application
In short: as §2

[20] = test system: blackgrass; assay: Test Example 4: herbicidal effect by soil treatment (Table 19, symbol J); format: in vivo, blackgrass (Alopecurus myosuroides); conditions: amount of applied herbicide 320 g/ha
In short: as §1

[21] = test system: velvetleaf; assay: Test Example 4: herbicidal effect by soil treatment (Table 19, symbol M); format: in vivo, velvetleaf (Abutilon theophrasti); conditions: amount of applied herbicide 320 g/ha
In short: as §1

[22] = test system: blackgrass; assay: Test Example 5: herbicidal effect by foliage application, plastic box (Table 20, symbol J); format: in vivo, blackgrass (Alopecurus myosuroides); conditions: foliage application
In short: as §2

[23] = test system: windgrass; assay: Test Example 5: herbicidal effect by foliage application, plastic box (Table 20, symbol L); format: in vivo, windgrass (Apera spica-venti); conditions: foliage application
In short: as §2

[24] = test system: southern crabgrass; assay: Test Example 5: herbicidal effect by foliage application, plastic box (Table 20, symbol F); format: in vivo, southern crabgrass (Digitaria ciliaris); conditions: foliage application
In short: as §2

[25] = test system: Chinese sprangletop; assay: Test Example 3: herbicidal effect by foliage application, Wagner pot (Table 18, symbol D); format: in vivo, chinese sprangletop (Leptochloa chinensis)
In short: as §3

[26] = test system: redroot pigweed; assay: Test Example 4: herbicidal effect by soil treatment (Table 19, symbol N); format: in vivo, redroot pigweed (Amaranthus retroflexus); conditions: amount of applied herbicide 320 g/ha
In short: as §1

[27] = test system: green foxtail; assay: Test Example 4: herbicidal effect by soil treatment (Table 19, symbol G); format: in vivo, green foxtail (Setaria viridis); conditions: amount of applied herbicide 320 g/ha
In short: as §1

[28] = test system: wild oat; assay: Test Example 5: herbicidal effect by foliage application, plastic box (Table 20, symbol I); format: in vivo, wild oat (Avena fatua); conditions: foliage application
In short: as §2

[29] = AAH 320 g/ha, evaluated three weeks after application
[30] = amount of applied herbicide 320 g/ha
[31] = 320 g/ha, three weeks after application

What does the source list for CCn1nc(C)c(O)c(-c2c(-c3ccccc3OC)sc3ccc(F)cc23)c1=O [2-404]?
herbicidal effect, R: persian speedwell [1]: 0 (Herbicidal rate of 5% or less (almost no effect)); M: velvetleaf, herbicidal effect (criteria 0-5) [2, 29]: 3 (Herbicidal rate of 40% or more and less than 70%); herbicidal effect, I: wild oat [3]: 0 (Herbicidal rate of 5% or less (almost no effect)); herbicidal effect, K: Italian ryegrass [4]: 0 (Herbicidal rate of 5% or less (almost no effect)); herbicidal effect, O: lambsquarters [5]: 3 (Herbicidal rate of 40% or more and less than 70%); H: barnyard grass, herbicidal effect (criteria 0-5) [6, 29]: 3 (Herbicidal rate of 40% or more and less than 70%); R: persian speedwell, herbicidal effect (criteria 0-5) [7, 29]: 5 (Herbicidal rate of 90% or more (almost completely withered)); O: lambsquarters, herbicidal effect (criteria 0-5) [8, 29]: 3 (Herbicidal rate of 40% or more and less than 70%); herbicidal effect on H: barnyard grass [9, 30]: 3 (Herbicidal rate of 40% or more and less than 70%); herbicidal effect, Q: false cleavers [10]: 0 (Herbicidal rate of 5% or less (almost no effect)); herbicidal effect, L: windgrass [11]: 0 (Herbicidal rate of 5% or less (almost no effect)); herbicidal effect, H: barnyard grass [12]: 0 (Herbicidal rate of 5% or less (almost no effect)); N: redroot pigweed, herbicidal effect (criteria 0-5) [13, 29]: 5 (Herbicidal rate of 90% or more (almost completely withered)); herbicidal effect, P: chickweed [14]: 0 (Herbicidal rate of 5% or less (almost no effect)); G: green foxtail, herbicidal effect (criteria 0-5) [15, 29]: 1 (Herbicidal rate of 5% or more and less than 20%); herbicidal effect on E: rice flat sedge [16, 30]: 3 (Herbicidal rate of 40% or more and less than 70%); K: Italian ryegrass, herbicidal effect (criteria 0-5) [17, 29]: 0 (Herbicidal rate of 5% or less (almost no effect)); herbicidal effect, F: southern crabgrass [18]: 0 (Herbicidal rate of 5% or less (almost no effect)); P: chickweed, herbicidal effect (criteria 0-5) [19, 29]: 5 (Herbicidal rate of 90% or more (almost completely withered)); herbicidal effect, J: blackgrass [20]: 0 (Herbicidal rate of 5% or less (almost no effect)); herbicidal effect, M: velvetleaf [21]: 0 (Herbicidal rate of 5% or less (almost no effect)); J: blackgrass, herbicidal effect (criteria 0-5) [22, 29]: 0 (Herbicidal rate of 5% or less (almost no effect)); L: windgrass, herbicidal effect (criteria 0-5) [23, 29]: 0 (Herbicidal rate of 5% or less (almost no effect)); F: southern crabgrass, herbicidal effect (criteria 0-5) [24, 29]: 2 (Herbicidal rate of 20% or more and less than 40%); herbicidal effect on D: Chinese sprangletop [25, 30]: 0 (Herbicidal rate of 5% or less (almost no effect)); herbicidal effect, N: redroot pigweed [26]: 3 (Herbicidal rate of 40% or more and less than 70%); herbicidal effect, G: green foxtail [27]: 0 (Herbicidal rate of 5% or less (almost no effect)); I: wild oat, herbicidal effect (criteria 0-5) [28, 29]: 0 (Herbicidal rate of 5% or less (almost no effect))

With CCCC(=O)Oc1c(C)nn(C)c(=O)c1-c1c(-c2ccc(F)cc2SC)sc2ccccc12 [1-064] as the compound, how does the “herbicidal effect rating, R: persian speedwell” value [1] read?
Its value is 0 (Herbicidal rate of 5% or less (almost no effect)).

And the “herbicidal effect grade, M: velvetleaf” value [2, 31]?
The value was 0 (Herbicidal rate of 5% or less (almost no effect)).

What about the “herbicidal effect rating, I: wild oat” value [3] of the same compound?
The value was 0 (Herbicidal rate of 5% or less (almost no effect)).

And the “herbicidal effect rating, K: Italian ryegrass” value [4]?
The value was 0 (Herbicidal rate of 5% or less (almost no effect)).

And the “herbicidal effect rating, O: lambsquarters” value [5]?
The value was 0 (Herbicidal rate of 5% or less (almost no effect)).

And the “herbicidal effect grade, H: barnyard grass” value [6, 31]?
The value was 0 (Herbicidal rate of 5% or less (almost no effect)).

What about the “herbicidal effect grade, R: persian speedwell” value [7, 31] of the same compound?
Its value is 0 (Herbicidal rate of 5% or less (almost no effect)).

And the “herbicidal effect grade, O: lambsquarters” value [8, 31]?
Its value is 0 (Herbicidal rate of 5% or less (almost no effect)).

And the “herbicidal effect on H (barnyard grass), rating 0-5” value ([9]; 320 g/ha)?
Its value is 3 (Herbicidal rate of 40% or more and less than 70%).

And the “herbicidal effect rating, Q: false cleavers” value [10]?
The value was 0 (Herbicidal rate of 5% or less (almost no effect)).

What about the “herbicidal effect rating, L: windgrass” value [11] of the same compound?
The value was 0 (Herbicidal rate of 5% or less (almost no effect)).

What about the “herbicidal effect rating, H: barnyard grass” value [12] of the same compound?
Its value is 0 (Herbicidal rate of 5% or less (almost no effect)).

What about the “herbicidal effect grade, N: redroot pigweed” value [13, 31] of the same compound?
The value was 0 (Herbicidal rate of 5% or less (almost no effect)).

And the “herbicidal effect rating, P: chickweed” value [14]?
The value was 3 (Herbicidal rate of 40% or more and less than 70%).

What about the “herbicidal effect grade, G: green foxtail” value [15, 31] of the same compound?
Its value is 0 (Herbicidal rate of 5% or less (almost no effect)).

And the “herbicidal effect on E (rice flat sedge), rating 0-5” value ([16]; 320 g/ha)?
The value was 3 (Herbicidal rate of 40% or more and less than 70%).

And the “herbicidal effect grade, K: Italian ryegrass” value [17, 31]?
The value was 0 (Herbicidal rate of 5% or less (almost no effect)).

And the “herbicidal effect rating, F: southern crabgrass” value [18]?
The value was 0 (Herbicidal rate of 5% or less (almost no effect)).

And the “herbicidal effect grade, P: chickweed” value [19, 31]?
Its value is 4 (Herbicidal rate of 70% or more and less than 90%).

And the “herbicidal effect rating, J: blackgrass” value [20]?
Its value is 0 (Herbicidal rate of 5% or less (almost no effect)).

And the “herbicidal effect rating, M: velvetleaf” value [21]?
Its value is 0 (Herbicidal rate of 5% or less (almost no effect)).

What about the “herbicidal effect grade, J: blackgrass” value [22, 31] of the same compound?
Its value is 0 (Herbicidal rate of 5% or less (almost no effect)).

What about the “herbicidal effect grade, L: windgrass” value [23, 31] of the same compound?
Its value is 0 (Herbicidal rate of 5% or less (almost no effect)).

What about the “herbicidal effect grade, F: southern crabgrass” value [24, 31] of the same compound?
The value was 0 (Herbicidal rate of 5% or less (almost no effect)).

What about the “herbicidal effect on D (Chinese sprangletop), rating 0-5” value ([25]; 320 g/ha) of the same compound?
The value was 0 (Herbicidal rate of 5% or less (almost no effect)).

What about the “herbicidal effect rating, N: redroot pigweed” value [26] of the same compound?
The value was 0 (Herbicidal rate of 5% or less (almost no effect)).

And the “herbicidal effect rating, G: green foxtail” value [27]?
The value was 0 (Herbicidal rate of 5% or less (almost no effect)).

And the “herbicidal effect grade, I: wild oat” value [28, 31]?
Its value is 0 (Herbicidal rate of 5% or less (almost no effect)).

— patent US20230085307A1, “PYRIDAZINONE COMPOUND AND HERBICIDE” (NISSAN CHEMICAL CORPORATION, priority 2019, published 2023)
